Reference: patent publication US20210283110A1, “COMPOUND FOR USE IN THE TREATMENT OF A DISEASE CHARACTERIZED BY DYSREGULATED MUCUS PRODUCTION AND/OR SECRETION” (UNIVERSITÄT REGENSBURG, priority 2018, published 2021)
“Also recorded” adds a separate entry of the source.

Tests used:
[1] = tested on: TMEM16A-expressing HEK293 cells; assay: FM4-64 fluorescence (exocytosis) in TMEM16A-expressing HEK293 cells; type: cell-based; conditions: 10 μM
Description: FIG. 8: TMEM16A controls exocytosis. • A) Whole cell current/voltage relationships obtained in mock transfected and TMEM16A (T16A) expressing HEK293 cells. Stimulation with the Ca^2+ ionophore ionomycin (Iono; 1 μM) activated whole cell currents in TMEM16A-expressing cells (n=12). • B) Increase of FM4-64 fluorescence upon stimulation with ionomycin in mock-transfected and TMEM16A-expressing cells, and inhibition by CaCCinhAO1 (AO1; 10 μM) (n=30). • C) Effect of ATP, or • D) CCH (both 100 μM) on FM4-64 fluorescence in cells expressing P2Y2 or M3 receptors (n=30). Mean±SEM. *significant increase by Iono (paired t-test). #significant difference when compared to mock (unpaired t-test).

[2] = tested on: airways of OVA-sensitized mice; assay: OVA-induced allergic airway inflammation in mice (alcian blue mucus staining, airway cross section, CD45 infiltration); type: in vivo, mouse; conditions: for OVA-induced mucus production: wt mice, tracheal instillation, niflumic acid 20 μM or niclosamide 5 μM
Description: Intestinal sections were collected for histological analyses. Mouse airways were fixed by transcardial fixation and were embedded in paraffin or were used as cryosections. For paraffin sections, tissues were fixed in 4% paraformaldehyde (PFA), 0.2% picric acid and 3.4% sucrose in PBS, and were washed in methanol before embedding in paraffin. Sections were stained according to standard Periodic acid-Schiff (PAS) or Alcian Blue methods and assessed by light microscopy.
Mouse models were performed according to the previous example. For investigating mucus, IL-8 release, and leukocytes, tissues were fixed using 4% paraformaldehyde (PFA), 0.2% picric acid and 3.4% sucrose in PBS and washed in methanol before embedding in paraffin. Mucus was analyzed using standard Periodic acid-Schiff (PAS) or alcian blue staining. MUC5AC was stained using anti-MUC5AC mouse antibody (1:200, Abcam, ab3649) and a secondary antibody conjugated with Alexa488 (Life Technologies, A-21206). Nuclei were stained with Hoe33342 (0.1 μg/ml PBS, Aplichem, Darmstadt, Germany). Quantikine ELISA kits (R&D systems) were used to measure secretion of the cytokine IL-8 by Calu3 cells.
All methods were performed as described in the previous examples. Mice were treated with ovalbumin (OVA) to induce an allergic reaction which leads to airway inflammation. […] After allergization with OVA and development of airway inflammation, excessive mucus production and inflammatory infiltration with immune cells is observed. Activation of cholinergic receptors using the muscarinic agonist carbachol (CCH) results in constriction of the airways and secretion of mucus (FIG. 5A-C). 3-day treatment using niclosamide reduced the CCH-induced constriction of the airways (FIG. 1). Furthermore, mucus secretion and inflammatory infiltrates were reduced.
OVA-induced allergic airway inflammation in mice caused pronounced airway goblet cell metaplasia. […] NFA is a well know inhibitor of Ca^2+ activated Cl^− channels and inhibits TMEM16A. The two main TMEM16 paralogs expressed in airway epithelial and smooth muscle cells, TMEM16A and TMEM16F, were expressed in HEK293 cells and the whole cell currents upon activation by the Ca^2+ ionophore ionomycin (Iono) were measured. […] Novel therapeutic strategies for the treatment of inflammatory airway diseases such as CF may therefore consider the use of inhibitors of TMEM16.
The present inventors disclose that airway epithelial knockout of TMEM16A causes a defect in basal, i.e. ATP-mediated mucus secretion. […] Mucus synthesis under inflammatory (OVA) conditions and mucus release upon cholinergic stimulation, however, were not compromised (FIG. 16C). […] Because basal mucus production still occurs in the absence of TMEM16A, other TMEM16 paralogs may also be in charge of mucus synthesis.

TMEM16A = molecular target: T1, TMEM16A (Homo sapiens, UniProt Q5XXA6); assay: Whole cell currents in HEK293 cells expressing TMEM16A (patch clamp); type: cell-based; design: expressed in transfected cells; host or cells: HEK293 cells; conditions: HEK293; 1 nM ionomycin; NFA
T1 sequence (Q5XXA6 1-986): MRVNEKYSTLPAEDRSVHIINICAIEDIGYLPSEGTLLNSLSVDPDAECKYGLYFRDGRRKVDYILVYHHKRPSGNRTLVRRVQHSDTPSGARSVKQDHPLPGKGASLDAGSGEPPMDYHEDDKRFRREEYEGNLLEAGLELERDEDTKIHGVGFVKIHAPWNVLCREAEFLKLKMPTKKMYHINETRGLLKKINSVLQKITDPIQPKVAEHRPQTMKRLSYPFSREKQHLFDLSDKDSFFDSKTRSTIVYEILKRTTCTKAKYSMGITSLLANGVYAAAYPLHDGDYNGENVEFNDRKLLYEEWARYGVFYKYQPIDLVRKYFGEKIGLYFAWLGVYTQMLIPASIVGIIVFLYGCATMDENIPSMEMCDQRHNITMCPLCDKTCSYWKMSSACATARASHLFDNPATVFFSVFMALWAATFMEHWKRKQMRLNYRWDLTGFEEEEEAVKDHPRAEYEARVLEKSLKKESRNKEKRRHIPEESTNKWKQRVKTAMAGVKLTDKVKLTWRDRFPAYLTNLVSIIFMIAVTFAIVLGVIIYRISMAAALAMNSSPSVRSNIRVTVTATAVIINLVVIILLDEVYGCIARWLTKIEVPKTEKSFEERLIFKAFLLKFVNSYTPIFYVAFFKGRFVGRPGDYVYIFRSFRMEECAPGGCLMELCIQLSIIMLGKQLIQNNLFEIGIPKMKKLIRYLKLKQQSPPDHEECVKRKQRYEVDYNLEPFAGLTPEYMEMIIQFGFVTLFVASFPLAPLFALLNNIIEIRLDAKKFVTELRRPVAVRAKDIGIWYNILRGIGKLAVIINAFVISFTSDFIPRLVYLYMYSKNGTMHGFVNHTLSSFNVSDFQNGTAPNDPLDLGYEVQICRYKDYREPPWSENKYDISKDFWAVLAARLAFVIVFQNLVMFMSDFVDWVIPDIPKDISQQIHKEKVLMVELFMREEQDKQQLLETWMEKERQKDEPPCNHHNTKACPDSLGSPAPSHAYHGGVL
Description: (§1) FIG. 14: The TMEM16-inhibitor niflumic acid attenuates inflammatory airway disease. • A,B) OVA-sensitization induced pronounced goblet cell metaplasia as indicated by alcian blue positivity. Exposure to carbachol (CCH, 25 mg/ml, nebulizer) induced release of mucus and airway […]. Bars indicate […]. […] Mean±SEM; *significant inhibition by NFA (paired ttest). # significant difference when compared to OVA (unpaired t-test). (n) number of airways analysed or number of cells examined.
(§2) FIG. 15: Inhibition of TMEM16A and TMEM16F by niclosamide. • A) TMEM16A whole cell currents in overexpressing HEK293 cells. […]
(§3) OVA-induced allergic airway inflammation in mice caused pronounced airway goblet cell metaplasia. […] The two main TMEM16 paralogs expressed in airway epithelial and smooth muscle cells, TMEM16A and TMEM16F, were expressed in HEK293 cells and the whole cell currents upon activation by the Ca^2+ ionophore ionomycin (Iono) were measured. […]
(§4) Similar to TMEM16A, also overexpressed TMEM16F was inhibited by niclosamide (FIG. 15D). […] TMEM16A was activated by ionomycin and TMEM16A currents were measured as iodide quenching.

TMEM16F = molecular target: T2, TMEM16F (Homo sapiens, UniProt Q4KMQ2); assay: Whole cell currents in HEK293 cells expressing TMEM16F (patch clamp); type: cell-based; conditions: HEK293; 1 nM ionomycin; NFA
T2 construct: expressed in transfected cells; host or cells: HEK293 cells
T2 sequence (Q4KMQ2 1-910): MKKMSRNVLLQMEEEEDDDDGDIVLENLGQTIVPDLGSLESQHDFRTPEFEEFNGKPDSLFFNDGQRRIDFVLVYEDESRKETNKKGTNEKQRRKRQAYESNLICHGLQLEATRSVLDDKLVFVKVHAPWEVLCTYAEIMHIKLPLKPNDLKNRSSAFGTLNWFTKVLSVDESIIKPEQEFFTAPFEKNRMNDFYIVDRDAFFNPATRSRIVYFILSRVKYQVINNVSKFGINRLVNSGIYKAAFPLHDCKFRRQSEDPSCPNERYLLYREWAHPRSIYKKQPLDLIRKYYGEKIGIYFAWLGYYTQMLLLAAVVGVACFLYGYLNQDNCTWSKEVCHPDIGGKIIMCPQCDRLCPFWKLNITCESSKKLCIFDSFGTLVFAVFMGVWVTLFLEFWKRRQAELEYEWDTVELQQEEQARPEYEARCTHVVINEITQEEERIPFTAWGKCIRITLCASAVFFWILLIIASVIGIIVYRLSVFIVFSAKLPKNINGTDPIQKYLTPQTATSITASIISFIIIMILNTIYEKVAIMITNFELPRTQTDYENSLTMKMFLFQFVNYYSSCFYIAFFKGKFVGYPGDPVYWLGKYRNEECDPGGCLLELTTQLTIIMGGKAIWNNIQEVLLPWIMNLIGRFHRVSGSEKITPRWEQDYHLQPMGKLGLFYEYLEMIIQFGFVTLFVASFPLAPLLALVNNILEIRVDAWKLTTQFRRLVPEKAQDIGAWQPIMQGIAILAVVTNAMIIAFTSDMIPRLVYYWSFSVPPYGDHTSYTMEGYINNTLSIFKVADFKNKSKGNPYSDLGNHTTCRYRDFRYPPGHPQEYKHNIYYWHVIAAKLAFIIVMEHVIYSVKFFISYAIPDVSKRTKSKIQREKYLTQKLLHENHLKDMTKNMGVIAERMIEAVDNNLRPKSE
Description: as §1, §2, §3, §4

[3] = tested on: airway epithelial specific TMEM16A knockout mice; assay: Airway mucus in airway epithelial specific TMEM16A knockout mice; type: in vivo, mouse; conditions: 1 mg/kg intraperitoneally for 5 days
Description: In another set of experiments, airway epithelial specific TMEM16A knockout mice were treated with benzbromarone. Airway epithelial specific TMEM16A knockout mice accumulate mucus in club cells, likely due to a secretory defect (FIG. 20A). Benzbromarone […], intraperitoneally) was applied for 5 days to mice with an airway epithelial specific knockout of TMEM16A. […] Thus benzbromarone is beneficial in the treatment of CF by reducing airway mucus plugging and therefore improving lung function.

endogenous TMEM16A = assay: Iodide quenching of YFP in HT29 cells stimulated with ionomycin; type: cell-based
Description: FIG. 15: Inhibition of TMEM16A and TMEM16F by niclosamide. • A) TMEM16A whole cell currents in overexpressing HEK293 cells. […] Rate of YFP quenching (arbitrary units (au/second), when applying 20 mM iodide to the extracellular bath solution. HT29 cells stably overexpressing YFP were stimulated with […] ionomycin. 100,000 cells were seeded/well. Mean±SEM; (number of experiments) #significant inhibition when compared to the absence of the inhibitor (p<0.05; unpaired t-test); *significant activation by UTP (paired t-test).
Similar to TMEM16A, also overexpressed TMEM16F was inhibited by niclosamide (FIG. 15D). The effect of niclosamide was also examined on endogenous TMEM16A expressed in HT29 colonic carcinoma cells, which were stably transfected with iodide-sensitive yellow fluorescent protein (YFP). TMEM16A was activated by ionomycin and TMEM16A currents were measured as iodide quenching.

[4] = OVA-sensitized mice, acute exposure to TMEM16A activator
[5] = OVA-sensitized mice, 20 mg/kg/day intratracheal for three days before CCH, 20 mg/kg/day

In the case of `CC(C)(C)C1CCc2c(sc(NC(=O)c3ccco3)c2C(=O)O)C1` (stereo not drawn) [CaCCinhAO1], the “increase of FM4-64 fluorescence upon stimulation with ionomycin” value [1] is reported as “inhibition”.
With `COCCN(C(=O)c1cc(OC)c(OC)c(OC)c1)c1nc(-c2ccccc2)cs1` [Eact] the airway contraction [2, 4] was “airway contraction” and the mucus release [2, 4] was “induces massive mucus release”.
`O=C(O)c1cccnc1Nc1cccc(C(F)(F)F)c1` [NFA, niflumic acid] was tested, and the “CCH-induced airway contraction (airway cross sections)” value [2, 5] was “completely blocked; also recorded: strongly attenuated”, the “mucus production / airway mucus” value [2, 5] was “abolished; also recorded: strongly attenuated” and the OVA-induced mucus production [2] was “strongly reduced”. For the same compound, the OVA-induced mucus production ([2]; listed as niflumic acid) was “inhibited mucus production”, the “TMEM16A whole cell current activated by ionomycin” value (TMEM16A) was “potently suppressed” and the “TMEM16F whole cell current activated by ionomycin” value (TMEM16F) was “potently suppressed”.
For `CCc1oc2ccccc2c1C(=O)c1cc(Br)c(O)c(Br)c1` [Benzbromarone, (3,5-dibromo-4-hydroxyphenyl) (2-ethyl-1-benzofuran-3-yl)methanone], the mucus production [3] was “largely reduced”.
`O=C(Nc1ncc([N+](=O)[O-])s1)c1ccccc1O` [tizoxanide, 2-hydroxy-N-(5-nitro-1,3-thiazol-2-yl)benzamide] was tested, and the “potency compared with CaCCinhAO1 or dichlorophen” value (endogenous TMEM16A; HT29 YFP iodide quenching) was “more potent” and the “inhibition of endogenous TMEM16A (iodide quenching of YFP)” value (endogenous TMEM16A; HT29 cells stably expressing YFP, ionomycin, 20 mM iodide) was “low nanomolar range”.
